Test results: PubChem BioAssay (NCI)
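A five-concentration, 48-hour dose response in 96-well plates underlies each endpoint, interpolated linearly between surrounding concentrations. Definition used: TGI = concentration required for complete inhibition of growth.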 Where a SMILES comes first, the peptide text is derived from it. The star is where a group is joined. Boc = CC(C)(C)OC(=O)*

Legend:
Assay in all cases: growth of human tumour cells (NCI), 48 h
[1] = tested on: DU-145 prostate
[2] = tested on: HCC-2998 colon
[3] = tested on: HCT-116 colon
[4] = tested on: HS 578T breast
[5] = tested on: LOX IMVI melanoma
[6] = tested on: OVCAR-4 ovarian
[7] = tested on: RPMI-8226 leukemia
[8] = tested on: U251 CNS
[9] = tested on: KM20L2 colon
[10] = tested on: LXFL 529 NSCLC
[11] = tested on: M19-MEL melanoma
[12] = tested on: RXF-631 renal
[13] = tested on: SNB-78 CNS

Compound	TGI [1]	TGI [2]	TGI [3]	TGI [4]	TGI [5]	TGI [6]	TGI [7]	TGI [8]	TGI [9]	TGI [10]	TGI [11]	TGI [12]	TGI [13]
Oc1c(CN2CCCC2)ccc2cccnc12	> 100 µM	> 100 µM	> 100 µM	> 100 µM	60.5 µM	> 100 µM	48.2 µM	> 100 µM					
COc1ccccc1NC(=S)N=Nc1c(O)[nH]c2ccccc12	13.7 µM	> 100 µM	> 100 µM	> 100 µM	> 100 µM	> 100 µM	> 100 µM	> 100 µM					
C[C@@]1(CCCCCCCCCCc2ccccc2)C[C@@]2(C)OC(=O)C[C@H]2OO1	> 4.64 µM	3.41 µM	32.5 µM	7.13 µM	34.6 µM	5.03 µM	5.36 µM	33.1 µM					
O=c1c2c3c(sc2nc2n1N=CN(c1ccccc1)C2)CCCC3	> 100 µM	> 100 µM	> 100 µM	> 100 µM	> 100 µM	> 100 µM	> 100 µM	> 100 µM					
O=P(O)(O)c1ccc(-c2ccc(I)cc2)cc1	> 100 µM	> 100 µM	> 100 µM	> 100 µM	> 100 µM	> 100 µM	> 100 µM	> 100 µM					
CC(C)(C)COC(=O)C(C)(C)NC(=O)C(CC(=O)OCc1ccccc1)NC(=O)OCc1ccccc1 (stereo not given)	> 100 µM	> 100 µM	> 100 µM	> 100 µM	> 100 µM	> 100 µM	> 100 µM	> 100 µM					
Cc1cc(=O)oc2cc(OCCCOc3ccc4c(C)cc(=O)oc4c3)ccc12		> 100 µM	> 100 µM		> 100 µM	> 100 µM	> 100 µM	> 100 µM	> 100 µM	> 100 µM	> 100 µM	> 100 µM	
CC(C)=CC1C(C(=O)Oc2ccccc2C(C)C)C1(C)C (stereo not given)	> 100 µM	33.4 µM	50.9 µM	> 100 µM	33.4 µM	> 100 µM	48.2 µM	33.6 µM					
CC(C)(C)NC1=NC(C(F)(F)F)(C(F)(F)F)NC(=O)N1	> 100 µM	79 µM	> 100 µM	> 100 µM	> 100 µM	> 100 µM	> 100 µM	> 100 µM					
Nn1c(Nc2ccc(S(N)(=O)=O)cc2)nnc(/C=C/c2c(O)ccc3ccccc23)c1=O	91.2 µM	51.9 µM	34.1 µM	> 100 µM	27.1 µM	47.5 µM	26.7 µM	> 100 µM					
Cc1nnc(N)nc1/C=C\c1ccc(Cl)cc1Cl	> 100 µM	42.8 µM	63.1 µM	99.2 µM	> 100 µM	> 100 µM	> 100 µM	> 100 µM					
N[C@H]1c2c(Br)sc(Br)c2C(=O)[C@H]1O	39.4 µM	27.5 µM	34.9 µM	> 87.8 µM	10.6 µM	27 µM	57.4 µM	29.7 µM					
COC(=O)[C@H](CC(C)C)NC(=O)[C@H](Cc1ccccc1)N1CC2C=CC1C2 (stereo not given in full)		> 100 µM			> 100 µM	> 100 µM	79.2 µM	> 100 µM	> 100 µM	> 100 µM	> 100 µM		
Clc1ccc(CCNC2(c3cc4ccccc4s3)CCCCC2)cc1Cl	> 100 µM	22.1 µM	29.3 µM	> 100 µM	35.6 µM	> 100 µM	32.1 µM	65.4 µM					
COC(=O)CN(CC(=O)NCCCBr)C1CCCCC1N(CC(=O)OC)CC(=O)OC (stereo not given)	> 100 µM	> 100 µM	> 100 µM	> 100 µM	> 100 µM	> 100 µM	> 100 µM	> 100 µM					
COC(=O)c1c(O)ccc2c1c1cc3ccccc3cc1n2Cc1cc(OC)cc(OC)c1	59.1 µM	> 100 µM	> 100 µM	8.5 µM	> 100 µM	> 66.9 µM	> 26.3 µM	> 100 µM					
O=C1/C(=C/c2ccc(O)cc2)CCCC1CN1CCCCC1 (stereo not given)	16.6 µM	17.2 µM	3.22 µM	11.5 µM	3.09 µM	25.8 µM	> 100 µM	22.3 µM					
O=C1C=C(Nc2ccccc2C(=O)CC(=O)C(=O)Nc2ccc(Cl)cc2)c2ccccc2C1=O		35.8 µM	28.8 µM		4.98 µM	37 µM	> 33.2 µM	68.2 µM	> 100 µM	42.6 µM	4.41 µM	> 80.8 µM	81 µM
COC(=O)C(Cc1ccccc1)NC(=O)C(CS)NC(=O)OC(C)(C)C (stereo not drawn) (Boc-Cys-Phe-OMe; configuration not given here)	> 100 µM	> 100 µM	> 100 µM	> 100 µM	> 100 µM	> 100 µM	> 100 µM	> 100 µM					
O=C(CCBr)N1CCN(C(=O)CCBr)CC1	496 µM	140 µM	151 µM	455 µM	165 µM	181 µM	394 µM	114 µM	277 µM	137 µM	252 µM	134 µM	295 µM
CC1=NN(C(=O)Cc2ccccc2)C(=O)/C1=C\c1ccc([N+](=O)[O-])cc1		> 100 µM	> 100 µM		> 100 µM	> 100 µM	> 100 µM	> 100 µM	> 100 µM	> 100 µM	> 100 µM		> 100 µM
